Results taken from PMC4769319, “Cohesin Releases DNA through Asymmetric ATPase-Driven Ring Opening” (Molecular Cell, 2016).

Target: T1, Smc1/Smc3 heterodimer with Scc1-C (cohesin) (Saccharomyces cerevisiae, UniProt P32908+P47037, P32908:D1164E, form not given)
T1 construct: N-terminal tags; Sf9 insect cells; fluorescently labelled for MST; with Sister chromatid cohesion protein 1
T1 sequence (P32908 1-1225 D1164E): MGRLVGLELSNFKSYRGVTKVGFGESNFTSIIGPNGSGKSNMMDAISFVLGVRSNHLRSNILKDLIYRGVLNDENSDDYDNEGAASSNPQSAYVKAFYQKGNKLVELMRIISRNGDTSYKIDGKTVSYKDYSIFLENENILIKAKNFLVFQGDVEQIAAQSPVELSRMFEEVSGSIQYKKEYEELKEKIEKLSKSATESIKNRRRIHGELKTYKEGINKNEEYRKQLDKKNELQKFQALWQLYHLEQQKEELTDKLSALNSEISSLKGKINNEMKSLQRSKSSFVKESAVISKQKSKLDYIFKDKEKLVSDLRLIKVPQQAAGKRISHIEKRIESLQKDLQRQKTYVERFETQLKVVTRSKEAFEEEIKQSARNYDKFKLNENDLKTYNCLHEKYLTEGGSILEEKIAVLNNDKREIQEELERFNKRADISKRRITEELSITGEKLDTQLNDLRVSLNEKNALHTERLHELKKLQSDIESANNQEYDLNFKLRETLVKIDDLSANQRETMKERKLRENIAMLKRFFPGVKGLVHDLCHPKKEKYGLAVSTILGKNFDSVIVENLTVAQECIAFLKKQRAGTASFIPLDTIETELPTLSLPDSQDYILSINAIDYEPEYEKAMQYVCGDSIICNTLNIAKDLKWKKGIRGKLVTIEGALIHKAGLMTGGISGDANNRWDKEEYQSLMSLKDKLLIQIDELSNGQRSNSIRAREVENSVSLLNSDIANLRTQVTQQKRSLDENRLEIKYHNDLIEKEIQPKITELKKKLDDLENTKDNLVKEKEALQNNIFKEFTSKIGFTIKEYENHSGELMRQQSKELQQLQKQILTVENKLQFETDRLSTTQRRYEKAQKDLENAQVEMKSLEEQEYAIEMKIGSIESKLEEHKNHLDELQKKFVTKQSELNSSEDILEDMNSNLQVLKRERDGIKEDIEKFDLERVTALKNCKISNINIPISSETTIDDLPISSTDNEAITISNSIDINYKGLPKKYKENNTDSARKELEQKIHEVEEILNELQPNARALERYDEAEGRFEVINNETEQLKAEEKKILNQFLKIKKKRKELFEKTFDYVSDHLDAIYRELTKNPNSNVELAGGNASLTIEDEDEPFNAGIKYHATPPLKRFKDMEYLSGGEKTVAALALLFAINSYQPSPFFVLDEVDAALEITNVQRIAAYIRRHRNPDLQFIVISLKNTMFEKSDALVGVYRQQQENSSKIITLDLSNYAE
T1 sequence (P47037 1-1230): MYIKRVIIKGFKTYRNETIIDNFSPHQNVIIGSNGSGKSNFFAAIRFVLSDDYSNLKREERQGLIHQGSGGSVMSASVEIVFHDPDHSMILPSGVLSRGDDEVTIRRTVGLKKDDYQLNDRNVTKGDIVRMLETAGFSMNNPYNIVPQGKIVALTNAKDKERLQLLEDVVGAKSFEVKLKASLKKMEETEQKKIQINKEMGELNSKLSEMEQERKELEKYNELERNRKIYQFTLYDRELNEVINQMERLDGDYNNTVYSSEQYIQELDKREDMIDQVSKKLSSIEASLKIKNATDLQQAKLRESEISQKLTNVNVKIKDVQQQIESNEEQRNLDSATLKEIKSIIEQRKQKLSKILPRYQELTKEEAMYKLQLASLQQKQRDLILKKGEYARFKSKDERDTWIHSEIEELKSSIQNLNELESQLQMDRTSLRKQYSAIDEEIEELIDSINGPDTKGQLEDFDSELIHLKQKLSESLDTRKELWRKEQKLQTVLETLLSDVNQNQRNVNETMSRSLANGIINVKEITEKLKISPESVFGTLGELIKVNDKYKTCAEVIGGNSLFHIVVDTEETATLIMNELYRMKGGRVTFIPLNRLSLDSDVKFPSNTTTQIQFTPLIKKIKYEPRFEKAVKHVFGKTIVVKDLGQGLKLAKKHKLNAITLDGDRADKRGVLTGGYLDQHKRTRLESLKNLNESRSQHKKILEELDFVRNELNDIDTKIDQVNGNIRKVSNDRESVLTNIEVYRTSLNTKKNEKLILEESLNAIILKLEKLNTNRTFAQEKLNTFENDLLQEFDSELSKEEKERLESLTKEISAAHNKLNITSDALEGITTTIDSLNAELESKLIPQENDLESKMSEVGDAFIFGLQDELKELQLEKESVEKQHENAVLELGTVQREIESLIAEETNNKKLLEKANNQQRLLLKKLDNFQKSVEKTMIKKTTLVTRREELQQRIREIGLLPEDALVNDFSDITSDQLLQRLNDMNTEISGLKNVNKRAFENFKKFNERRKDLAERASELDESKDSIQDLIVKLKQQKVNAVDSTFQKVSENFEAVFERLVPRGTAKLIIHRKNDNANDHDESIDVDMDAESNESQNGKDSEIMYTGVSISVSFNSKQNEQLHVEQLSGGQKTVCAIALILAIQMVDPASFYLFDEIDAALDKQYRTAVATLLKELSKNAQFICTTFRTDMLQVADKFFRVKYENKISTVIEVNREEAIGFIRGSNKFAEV
T1 sequence (Q12158 1-566 partner): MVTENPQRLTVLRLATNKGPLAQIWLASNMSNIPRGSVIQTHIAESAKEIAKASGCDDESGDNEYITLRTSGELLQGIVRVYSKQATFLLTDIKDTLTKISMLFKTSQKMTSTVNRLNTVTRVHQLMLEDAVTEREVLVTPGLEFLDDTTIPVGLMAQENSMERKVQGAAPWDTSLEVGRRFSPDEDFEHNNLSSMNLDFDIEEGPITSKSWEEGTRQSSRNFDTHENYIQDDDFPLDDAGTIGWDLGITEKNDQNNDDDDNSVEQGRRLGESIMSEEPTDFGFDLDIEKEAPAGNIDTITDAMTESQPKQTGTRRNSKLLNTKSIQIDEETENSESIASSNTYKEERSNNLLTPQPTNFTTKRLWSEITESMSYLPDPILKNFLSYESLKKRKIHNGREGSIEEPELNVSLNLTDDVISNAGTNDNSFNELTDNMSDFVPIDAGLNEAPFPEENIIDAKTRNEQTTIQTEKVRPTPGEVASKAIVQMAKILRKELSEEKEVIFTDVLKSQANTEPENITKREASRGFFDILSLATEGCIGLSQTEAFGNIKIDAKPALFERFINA
Assay: microscale thermophoresis
Assay type: binding
Details: fluorescently labelled protein; Smc1 co-purified with Scc1-C, plus Smc3; read-out: affinity
From the text: microscale thermophoresis on Smc1/Smc3 heterodimer with Scc1-C (cohesin) | Smc1 L1129V, D1164E and E1158Q mutants all had wild-type-like affinity to both ATP and ADP | wild-type and mutant cohesin complexes appear to have similar affinities to ADP

Structure (SMILES) | Kd
Nc1ncnc2c1ncn2[C@@H]1O[C@H](COP(=O)(O)OP(=O)(O)O)[C@@H](O)[C@H]1O [ADP] | > 1000 µM
Nc1ncnc2c1ncn2[C@@H]1O[C@H](COP(=O)(O)OP(=O)(O)OP(=O)(O)O)[C@@H](O)[C@H]1O [ATP] | 542 ± 188 µM
